In PubChem BioAssay (NCI):
“And” between values parts separate entries of the source, which are not always exact repeats. Equal values may be shown once.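 Following 48 hours of exposure in 96-well plates, responses at five concentrations were used to interpolate endpoints linearly. The concentration for 50% growth inhibition is given as GI50. TGI: concentration producing complete growth inhibition.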

Tests used:
Assay in all cases: NCI anticancer screen, dose series, 48 h
HCT-15 colon = tested on: HCT-15 colon
PC-3 prostate = tested on: PC-3 prostate
MDA-MB-231 breast = tested on: MDA-MB-231 breast
HS 578T breast = tested on: HS 578T breast
NCI-H460 lung = tested on: NCI-H460 lung
A498 renal = tested on: A498 renal
SNB-75 CNS = tested on: SNB-75 CNS
A549 NSCLC = tested on: A549 NSCLC
DU-145 prostate = tested on: DU-145 prostate
MDA-MB-435 = tested on: MDA-MB-435

Structure (SMILES)	TGI (HCT-15 colon)	TGI (PC-3 prostate)	TGI (MDA-MB-231 breast)	TGI (HS 578T breast) [µM]	TGI (NCI-H460 lung) [µM]	TGI (A498 renal)	TGI (SNB-75 CNS)	TGI (A549 NSCLC)	TGI (DU-145 prostate) [µM]	TGI (MDA-MB-435) [µM]	GI50 (SNB-75 CNS)	GI50 (HCT-15 colon)	GI50 (MDA-MB-231 breast) [µM]	GI50 (NCI-H460 lung) [µM]	GI50 (A498 renal)	GI50 (A549 NSCLC) [µM]
CCOP(=O)(OCC)C1C(CO)OC(n2ccc(=O)[nH]c2=O)C1O (stereo unspecified)	> 100 µM	> 100 µM	> 100 µM	> 100	> 100	> 100 µM	> 100 µM	> 100 µM	–	–	–	–	–	–	–	–
CCNC(=O)Nc1ccccn1	–	> 100 µM	> 100 µM	> 100	> 100	> 100 µM	> 100 µM	> 100 µM	> 100	> 100	–	–	–	–	–	–
C/C(=C\c1ccccc1)C(=O)CCN1CCOCC1	32.6 µM	–	–	–	> 100	> 100 µM	> 66.1 µM	> 100 µM	–	–	–	–	–	–	–	–
C=C(C)CCC(=O)[C@](C)(O)[C@H]1[C@H](O)C[C@@]2(C)[C@@H]3CCc4c(cc(OC5OC(CO)C(O)C(O)C5O)c(O)c4C)C3(C)C(=O)C[C@]12C (stereo partly specified)	> 100 µM	> 100 µM	> 100 µM	–	> 100	> 100 µM	> 100 µM	> 100 µM	> 100	> 100	–	–	–	–	–	–
C/C(=N/NC(N)=S)c1ccc2ccccc2c1	> 100 µM	–	–	–	78.1	> 100 µM	96.3 µM	> 100 µM	–	–	–	–	–	–	–	–
CCC1=CCC23C(=O)C=CC(=O)C2(C1)C(=O)c1cccc(OC)c1C3=O (stereo unspecified)	37 µM	28.4 µM	29.8 µM	57.3	62.5	–	33.5 µM	51.5 µM	32.2	30.8	–	–	–	–	–	–
CCSC1=CC(=O)c2nc3ccccc3c3ccnc1c23	7.37 µM	> 23.3 µM	31.8 µM	14.7	23.8	–	26.6 µM	22.9 µM	15.5	3.43	–	–	–	–	–	–
Nn1c(CCCCCCCCc2nnc(COc3c(O)ccc4ccccc34)n2N)nnc1COc1c(O)ccc2ccccc12	> 100 µM	> 100 µM	> 100 µM	–	> 100	> 100 µM	> 100 µM	> 100 µM	> 100	> 100	–	–	–	–	–	–
CSCCC(NCc1c(O)ccc2c(-c3ccccc3)cc(=O)oc12)C(=O)O (stereo unspecified)	> 100 µM	> 100 µM	> 100 µM	> 100	> 100	–	> 100 µM	> 100 µM	> 100	> 100	–	–	–	–	–	–
CCC(C(=O)O)c1ccc(OCc2ccccc2)cc1 (stereo unspecified)	–	–	–	–	> 100	> 100 µM	> 100 µM	> 100 µM	–	–	–	–	–	–	–	–
CN(C)c1ccc(-c2c(C#N)c(S)n(NS(=O)(=O)c3ccccc3)c(=O)c2C#N)cc1	57.7 µM	> 100 µM	> 100 µM	–	–	> 100 µM	> 100 µM	> 100 µM	> 100	92.6	–	–	–	–	–	–
CN(C)C(CN)CC1=C(CC(CN)N(C)C)CCC1 (stereo unspecified)	> 100 µM	–	–	–	> 100	> 100 µM	> 100 µM	> 100 µM	–	–	–	–	–	–	–	–
CCOC(=O)C1=C(C(C)=O)CSC(c2ccccc2)=N1	> 100 µM	–	–	–	> 100	> 100 µM	> 100 µM	> 100 µM	–	–	–	–	–	–	–	–
CCN(CC)CCNc1ccc2nnn3c4ccc(OC)cc4c(=O)c1c23	18.7 µM	–	–	–	13.3	27 µM	21 µM	19.4 µM	–	–	–	–	–	–	–	–
CSC1CC2C(CC1(C)O)C2(C)C (stereo unspecified)	> 100 µM	–	–	–	> 100	> 100 µM	> 100 µM	> 100 µM	–	–	> 100 µM and 47.9 µM	–	–	–	–	–
CC(C)(C)C1=Cc2cc3cc(C(C)(C)C)[nH]c(=O)c3cc2S(=O)(=O)N1	–	–	–	–	> 100	> 100 µM	> 100 µM	75.3 µM	–	–	–	–	–	–	–	–
CCOC(=O)c1[nH]cc(C)c1-c1ccn(-c2ccccc2)c1	> 100 µM	> 100 µM	–	> 100	> 100	> 100 µM	49.5 µM	> 100 µM	> 100	> 100	–	–	–	–	–	–
O=C(CP(=O)(O)O)c1cccs1	> 100 µM	–	–	–	> 100	> 100 µM	> 100 µM	> 100 µM	–	–	–	–	–	–	–	–
C=C1C(O)C2(O)OCC34C(CC5C(C)=CC(=O)C(O)C5(C)C23)OC(=O)C(OC(=O)C/C=C(\C)CCCCC)C14 (stereo unspecified)	0.0503 µM and 0.352 µM and 0.151 µM	0.0032 µM and 0.0141 µM	0.0218 µM and 0.162 µM	< 0.001	–	0.00941 µM and 0.057 µM and 0.0255 µM	0.00366 µM and 0.0278 µM	0.0233 µM and 0.0698 µM and 0.0535 µM	–	0.00221	< 0.001 µM	0.00953 µM and 0.0434 µM	0.0302	< 0.001	0.00249 µM and 0.0223 µM	0.00137
Cc1cc2c(C)cc(=O)[nH]c2cc1N	> 100 µM	> 100 µM	> 100 µM	–	> 100	> 100 µM	> 100 µM	> 100 µM	> 100	> 100	–	–	–	–	–	–
